Legend:
[1] = tested on: Male Lister Hooded rats; test: Novel Object Recognition test; format: in vivo; settings: rat, 24 h delay
Method: The Novel Object Recognition test (NOR) is based on the greater spontaneous exploration of a novel object, compared with a familiar object, observed in rodents (Behav. Brain Res., 1988, 31(1), 47-59). […] Therefore, it is considered to be analogous to recognition memory tests used in human clinical testing. Male Lister Hooded rats were assessed for object recognition in a test apparatus comprising of a perspex test arena housed within a sound attenuating chamber. Video images of behaviour were captured by digital camera and recorded to a computer. Rats were habituated to the test arena on four occasions prior to testing. Habituation sessions replicated the test day sequence exactly with the exception of object presentation. On test days, each rat was placed into the test arena and 3 minutes later the rat was presented with two identical objects (plastic shapes). The time spent actively exploring the objects during a 3-minute test period (T1) was recorded. Following T1 rats were returned to home cages. After 24 hours each rat was again placed in the test arena and 3 minutes later was presented with one of the now familiar objects and a novel object, and again the time spent actively exploring the objects during a 3-minute test period (T2) was recorded. The presentation order and position of objects (left/right) was randomised within groups to prevent bias from order or place preference. Objects were cleaned with 70% ethanol solution between trials to remove any olfactory/taste cues. Compounds were administered by oral gavage at an appropriate pre-treatment time prior to T1 and T2 (n=12) at dosage ranges between 0.03 and 3 mg/kg. In some experiments the 5-HT6 receptor antagonist N-(3,5-dichloro-2-methoxyphenyl)-4-methoxy-3-(piperazin-1-yl)benzenesulfonamide (CAS 402713-80-8) (10 mg/kg p.o.; 4 h pre-treatment time) was included as a positive control. Vehicle controls (1% methylcellulose in water) were included for comparison in each study. Results are expressed as the d2 index (difference in time spent exploring novel and familiar objects/total object exploration in T2).

[2] = target: mAChR M1 (Homo sapiens, UniProt P11229); test: In vitro cellular calcium flux assay, positive allosteric modulation of mAChR M1; format: cell-based; settings: BHK cells expressing mAChR M1; EC20 carbachol; Examples 76-80 and 82-89 slightly modified procedure
Outline: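 Baby hamster kidney cells stably expressing human mAChR M1, loaded with Calcium 4 dye in HBSS/20 mM HEPES/2.5 mM probenecid for 30 min at 37 °C. An 11-point 1-in-3 compound dilution series was added and calcium rise read as fluorescence; positive allosteric modulator pEC50 and antagonist pIC50 derived.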

[3] = tested on: male Long-Evans rats; test: Novel Object Recognition Test in Scopolamine-Induced Cognitive Deficit Condition; format: in vivo; settings: rat
Method: For 2 days before starting the test, 6-week old male Long-Evans rats were acclimated to experimental operations such as administration and a test device (that is, a black or gray plastic cage with a width of 40 cm, a depth of 30 cm and a height of 45 cm). Each test compound was dissolved in a 0.5% methylcellulose in water to be orally administered at dosage ranges between 0.01 and 0.1 mg/kg. Thirty minutes after the test compound administration, scopolamine hydrobromide dissolved in a saline was intraperitoneally administered at a 0.7 mg/kg dose, so as to induce cognitive impairment. After another 30 minutes, each rat was acclimated in the test device for 3 minutes, and thereafter, two blocks in the same shape were put in the test device as acquisition trial, and exploring time for each block was measured for 5 minutes. Two hours after the acquisition trial, the rat was acclimated in the test device for 3 minutes, and thereafter, the same block as those used in the acquisition trial and a new block in a different shape were put in the cage for retention trial. The exploring time for each block was measured for 3 minutes, and a ratio of the exploring time for the newly used block to the sum of the exploring times for the respective blocks was calculated as a discrimination index (novel object exploration time/total object exploration time in retention trial×100). […]
Each discrimination index was shown as an average and a standard error. The statistical significance between the vehicle group and the scopolamine alone group was analyzed by the independent t-test. The statistical significance between the scopolamine alone group and each sample group was analyzed by one-way analysis of variance and then by Dunnett's multiple comparison test. […]

[4] = target: mAChR M2 (Homo sapiens (Human), UniProt P08172); test: In vitro cellular calcium flux assay, PAM, NAM and agonist modes, mAChR M2; format: cell-based
Method: Baby hamster kidney cells stably expressing human or rat mAChR M1 to M5 were utilised for primary and selectivity profiling activities. mAChR M2 and M4 cell lines also stably expressed the chimeric Gαqi5 G-protein.
Human mAChR M1, M3, M5 and rat M1 cells were grown in low glucose Dulbecco's Modified Eagle's Medium (DMEM) medium plus heat inactivated 10% fetal bovine serum (HI FBS) and 500 μg/ml hygromycin B^1. Human mAChR M2 and M4 cells were maintained as above with^2 the addition of 500 μg/ml G418 to the media. Cells were maintained in culture at 37° C./5% CO2 and passaged twice weekly by treatment with 0.05% Trypsin/EDTA detachment solution, centrifugation (200 g, 5 min) and re-suspension in fresh media. Following cell expansion, cells were cryopreserved at −80° C. by treatment with 0.05% Trypsin/EDTA detachment solution, centrifugation (200 g, 5 min) and re-suspension of the pellet in freezing media (90% HI FBS/10% DMSO^3) at 15E6 cells/ml^4.
Prior to assaying, cells were prepared by thawing at 37° C. in a water bath, centrifugation (200 g, 5 min) and re-suspension of the pellet in fresh media. 15000 cells per well were seeded in black, clear bottomed 384-well Greiner Bio-One plates in plating medium (DMEM/10% HI FBS) and incubated overnight at 37 C/5% CO2.
On the day of the assay, media was removed from each well and replaced with 50 μl^5 assay buffer (HBSS with 20 mM HEPES and 2.5 mM Probenecid) containing the calcium indicator, Calcium 4 (Molecular Devices). Cells were then incubated at 37° C./5% CO2 for 30 min and at room temperature.
Compound preparation was carried out by generation of 11-point, 1 in 3 serial dilution concentration response curves in 100% DMSO. Compound was then diluted 1 in 65^6 with assay buffer (HBSS with 20 mM HEPES and 2.5 mM Probenecid) prior to the addition of 10 ul^7 to the cells using a Tetra fluorometric imaging plate reader (Molecular Devices)^8. Compound driven increases in intracellular calcium flux was measured as an increase in fluorescence (494Ex, 516Em)^9.
Positive allosteric modulator pEC50 values and antagonist pIC50 values for each compound were then determined. […] The points of modification and the alternate reagents, concentrations or equipment employed in these examples were: ^1200 μg/ml hygromycin B; ^2G418 not added; ^3CELLBANKER 1; ^410E6; ^5 40 μl; ^6 1 in 99; ^7 20 μl; ^8FDSS6000 (Hamamatsu Photonics); ^9(480Ex, 540Em); ^10Spotfire (TIBCO).
Certain compounds were tested in PAM, NAM and agonist modes against mAChR M2, M3, M4 and M5.

Sequence of mAChR M1 (P11229 whole entry, looked up): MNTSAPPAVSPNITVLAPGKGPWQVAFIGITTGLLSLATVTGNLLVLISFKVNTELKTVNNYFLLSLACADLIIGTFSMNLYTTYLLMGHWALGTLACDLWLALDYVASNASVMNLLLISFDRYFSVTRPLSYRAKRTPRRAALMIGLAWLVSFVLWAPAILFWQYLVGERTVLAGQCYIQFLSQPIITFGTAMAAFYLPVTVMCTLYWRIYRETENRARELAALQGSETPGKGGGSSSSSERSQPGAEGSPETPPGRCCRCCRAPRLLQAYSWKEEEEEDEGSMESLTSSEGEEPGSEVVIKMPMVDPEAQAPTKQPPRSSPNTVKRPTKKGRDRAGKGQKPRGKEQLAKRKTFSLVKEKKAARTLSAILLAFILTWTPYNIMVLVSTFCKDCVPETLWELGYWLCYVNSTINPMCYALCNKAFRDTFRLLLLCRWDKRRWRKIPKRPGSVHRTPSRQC
Sequence of mAChR M2 (P08172 whole entry): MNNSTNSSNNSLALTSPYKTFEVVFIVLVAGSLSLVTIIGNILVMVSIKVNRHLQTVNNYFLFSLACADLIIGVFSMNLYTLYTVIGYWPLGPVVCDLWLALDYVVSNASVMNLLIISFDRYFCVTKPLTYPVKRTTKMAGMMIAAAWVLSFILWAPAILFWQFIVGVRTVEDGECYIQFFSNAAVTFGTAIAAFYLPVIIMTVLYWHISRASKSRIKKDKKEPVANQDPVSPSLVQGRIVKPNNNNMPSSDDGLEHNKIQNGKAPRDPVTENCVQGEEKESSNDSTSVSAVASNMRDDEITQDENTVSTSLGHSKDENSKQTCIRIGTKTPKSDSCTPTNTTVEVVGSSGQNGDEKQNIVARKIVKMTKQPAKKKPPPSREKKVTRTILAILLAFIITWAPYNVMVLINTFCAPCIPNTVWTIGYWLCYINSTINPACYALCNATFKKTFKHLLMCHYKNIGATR

O=C(N[C@H]1CCCC[C@@H]1O)c1cn(Cc2ccc(F)cc2)c2cccnc12 [Example 5, 1-(4-Fluorobenzyl)-N-((1S,2S)-2-hydroxycyclohexyl)-1H-pyrrolo[3,2-b]pyridine-3-carboxamide]
d2 index [mean ± SEM] ([1]; 0.03 mg/kg p.o.): [0.04 ± 0.06] | d2 index [mean ± SEM] ([1]; 0.1 mg/kg p.o.): [0.20 ± 0.05]** | d2 index [mean ± SEM] ([1]; 0.3 mg/kg p.o.): [0.28 ± 0.05]*** | pEC50 for positive allosteric modulation [2]: 6.9 | discrimination index [mean ± SEM] ([3]; Scopolamine/0.01 mg/kg p.o.): [50.5 ± 4.3] | discrimination index [mean ± SEM] ([3]; Scopolamine/0.03 mg/kg p.o.): [61.7 ± 2.5] | discrimination index [mean ± SEM] ([3]; Scopolamine/0.1 mg/kg p.o.): [72.9 ± 2.6]### | EC50 [4]: > 10 µM

From patent publication US10072005B2, “4-azaindole derivatives” (EISAI R&D MANAGEMENT CO., LTD., priority 2013, dated 2018)
